Earlier results as cited in patent US20190328829A1, “TRIPARTITE COMBINATION THERAPY FOR PROSTATE CANCER” (UNIVERSITY OF MARYLAND, BALTIMORE, priority 2016, published 2019).

Key:
testosterone = settings: males, continuous administration

Compound | testosterone reduced to castrate levels (testosterone) | solubility in water
CCNC(=O)[C@@H]1CCCN1C(=O)[C@H](CCCNC(=N)N)NC(=O)[C@H](CC(C)C)NC(=O)[C@@H](CC(C)C)NC(=O)[C@H](Cc1ccc(O)cc1)NC(=O)[C@H](CO)NC(=O)[C@H](Cc1c[nH]c2ccccc12)NC(=O)[C@H](Cc1c[nH]cn1)NC(=O)[C@@H]1CCC(=O)N1 [leuprolide acetate, Leuprolide acetate] | below 50 ng/dL | –
O=c1c(-c2ccc(O)cc2)coc2cc(O)cc(O)c12 [Genistein, 5,7-dihydroxy-3-(4-hydroxyphenyl)-chromen-4-one] | – | virtually insoluble in water
